Laboratory results as given in the supplement of paper PMC7840683.
± gives the standard deviation of the averaged measurements.

Tested on: HepaRG
Assay: LDH release cytotoxicity, % of total lysis control; higher = more cytotoxic
Conditions: 48 h
Method in brief: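 On collagen I-coated 96-well plates, single-lot HepaRG cells were exposed for 48 h, in duplicate, to eight-point half-log series of test chemicals beginning at 100 µM. The exposure medium was serum-free induction medium with 0.5% DMSO, and total lysis wells got 0.1% Triton X. Resorufin fluorescence from the CytoTox-ONE reaction, read on a Tecan Safire, reported LDH in 50 µL of spent medium. Percent cytotoxicity came from normalization to on-plate vehicle and total lysis controls, averaged over the duplicates.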

Row | Structure (SMILES) | LDH release cytotoxicity (0.03162 µM) | LDH release cytotoxicity (0.1 µM) | LDH release cytotoxicity (0.3162278 µM) | LDH release cytotoxicity (1 µM) | LDH release cytotoxicity (3.16228 µM) | LDH release cytotoxicity (10 µM) | LDH release cytotoxicity (31.6228 µM) | LDH release cytotoxicity (100 µM) | LDH release cytotoxicity (0.0317809 µM) | LDH release cytotoxicity (0.1005 µM) | LDH release cytotoxicity (0.317809 µM) | LDH release cytotoxicity (1.005 µM) | LDH release cytotoxicity (3.17809 µM) | LDH release cytotoxicity (10.05 µM) | LDH release cytotoxicity (31.7809 µM) | LDH release cytotoxicity (100.5 µM)
1 | Cc1nn(C)c(Oc2ccccc2)c1C=NOCc1ccc(C(=O)OC(C)(C)C)cc1 [Fenpyroximate (Z,E)] | -1.39 ± 1.1% | -1.596 ± 0.013% | -2.4 ± 0.59% | -2.65 ± 0.51% | 11 ± 1.3% | 17.19 ± 0.12% | 20.7 ± 1.8% | 30.9 ± 2.2% | – | – | – | – | – | – | – | –
2 | COP(=S)(OC)Oc1ccc(SC)c(C)c1 [Fenthion] | -0.428 ± 0.68% | -0.733 ± 0.38% | -0.879 ± 0.25% | -0.217 ± 1% | -0.561 ± 0.56% | 0.173 ± 0.094% | 0.52 ± 0.028% | 2.37 ± 0.83% | – | – | – | – | – | – | – | –
3 | N#Cc1nn(-c2c(Cl)cc(C(F)(F)F)cc2Cl)c(N)c1S(=O)C(F)(F)F (centres undefined) [Fipronil] | – | – | – | – | – | – | – | – | -1.15 ± 1.5% | -0.938 ± 0.22% | -1.37 ± 0.65% | -2.05 ± 0.55% | -1.97 ± 1.1% | -1.68 ± 0.5% | 19.3 ± 1.7% | 59.8 ± 2%
4 | CCCCOC(=O)C(C)Oc1ccc(Oc2ccc(C(F)(F)F)cn2)cc1 (centres undefined) [Fluazifop-P-butyl] | – | – | – | – | – | – | – | – | -1.34 ± 1.1% | -0.704 ± 2.2% | -1.02 ± 2.1% | -0.805 ± 2.7% | -1.3 ± 1.6% | -0.416 ± 3.4% | 0.0852 ± 1.8% | -0.23 ± 1.1%
5 | CCCCOC(=O)C(C)Oc1ccc(Oc2ccc(C(F)(F)F)cn2)cc1 (centres undefined) [Fluazifop-butyl] | -0.307 ± 2.5% | -0.771 ± 1.4% | -0.631 ± 0.81% | -0.375 ± 0.17% | -0.996 ± 0.14% | 0.207 ± 1.2% | 0.479 ± 1.7% | 1.84 ± 2.7% | – | – | – | – | – | – | – | –
6 | O=[N+]([O-])c1cc(C(F)(F)F)c(Cl)c([N+](=O)[O-])c1Nc1ncc(C(F)(F)F)cc1Cl [Fluazinam] | -1.32 ± 0.49% | -1.4 ± 0.42% | -1.08 ± 0.19% | -1.53 ± 1% | -1.12 ± 0.27% | 0.179 ± 0.78% | 9.87 ± 2.4% | 55.8 ± 2.7% | – | – | – | – | – | – | – | –
7 | OC(Cn1cncn1)(Cn1cncn1)c1ccc(F)cc1F [Fluconazole] | -1.56 ± 0.43% | -0.0671 ± 1.1% | 0.556 ± 0.68% | -0.472 ± 0.33% | 0.965 ± 0.97% | 0.138 ± 0.29% | 0.241 ± 0.57% | 0.712 ± 0.97% | – | – | – | – | – | – | – | –
8 | N#Cc1c[nH]cc1-c1cccc2c1OC(F)(F)O2 [Fludioxonil] | -1.45 ± 1% | -1.69 ± 0.5% | -1.72 ± 0.45% | -1.04 ± 0.23% | 0.437 ± 0.076% | 0.919 ± 0.9% | 3.74 ± 0.92% | 9.41 ± 1.2% | – | – | – | – | – | – | – | –
9 | CC(C)N(C(=O)COc1nnc(C(F)(F)F)s1)c1ccc(F)cc1 [Flufenacet] | -2.32 ± 1.1% | -2.03 ± 0.074% | -2.3 ± 0.27% | -2.01 ± 0.82% | -2.29 ± 0.33% | -1.38 ± 0.041% | 0.458 ± 1.1% | 1.71 ± 0.18% | – | – | – | – | – | – | – | –
10 | CCOC(=O)COc1cc(-n2ncc(C(F)(F)F)c(C)c2=O)c(F)cc1Cl [Flufenpyr-ethyl] | -1.89 ± 1.7% | -1.45 ± 0.22% | -1.14 ± 0.024% | -1.34 ± 0.57% | -1.22 ± 0.67% | -0.592 ± 0.22% | -0.509 ± 1.1% | 0.726 ± 0.9% | – | – | – | – | – | – | – | –
11 | CCN(Cc1c(F)cccc1Cl)c1c([N+](=O)[O-])cc(C(F)(F)F)cc1[N+](=O)[O-] [Flumetralin] | -0.56 ± 1.7% | -0.903 ± 0.34% | -1.29 ± 0.66% | -1.01 ± 0.52% | -0.0868 ± 0.54% | -0.582 ± 0.92% | -0.2 ± 0.43% | 5.506 ± 0.052% | – | – | – | – | – | – | – | –
12 | Cc1ccn2nc(S(=O)(=O)Nc3c(F)cccc3F)nc2n1 [Flumetsulam] | -2 ± 0.6% | -0.7 ± 1.5% | -1.43 ± 3% | -1.43 ± 1.5% | -1.84 ± 0.62% | 0.538 ± 0.94% | 0.194 ± 2% | 1.86 ± 1.8% | – | – | – | – | – | – | – | –
13 | CCCCCOC(=O)COc1cc(N2C(=O)C3=C(CCCC3)C2=O)c(F)cc1Cl [Flumiclorac-pentyl] | -1.94 ± 0.45% | -1.12 ± 1.1% | -0.329 ± 0.33% | -1.17 ± 0.56% | -0.793 ± 0.22% | -0.278 ± 0.39% | -1.05 ± 0.035% | 0.436 ± 0.073% | – | – | – | – | – | – | – | –
14 | C#CCN1C(=O)COc2cc(F)c(N3C(=O)C4=C(CCCC4)C3=O)cc21 [Flumioxazin] | -0.355 ± 0.95% | -0.895 ± 0.2% | -0.721 ± 1.1% | -1.33 ± 0.85% | -0.964 ± 0.086% | -1.1 ± 0.023% | -0.837 ± 0.11% | 0.763 ± 0.79% | – | – | – | – | – | – | – | –
15 | CN(C)C(=O)Nc1cccc(C(F)(F)F)c1 [Fluometuron] | -0.415 ± 0.25% | -0.308 ± 0.37% | -0.631 ± 0.97% | -0.564 ± 1.4% | -0.69 ± 0.18% | 0.366 ± 0.1% | -0.569 ± 0.084% | 0.377 ± 0.36% | – | – | – | – | – | – | – | –
16 | c1ccc2c(c1)-c1cccc3cccc-2c13 [Fluoranthene] | -1.36 ± 0.16% | -0.258 ± 0.61% | -0.857 ± 0.079% | -0.0961 ± 0.27% | -0.593 ± 0.16% | -0.226 ± 0.011% | -0.969 ± 0.3% | -2.77 ± 0.41% | – | – | – | – | – | – | – | –
17 | c1ccc2c(c1)Cc1ccccc1-2 [Fluorene] | -1.56 ± 0.24% | -1 ± 0.37% | -0.941 ± 0.29% | -0.74 ± 0.44% | -0.5867 ± 0.0032% | -1.05 ± 0.38% | -0.324 ± 0.11% | -0.2 ± 0.14% | – | – | – | – | – | – | – | –
18 | CON=C(C1=NOCCO1)c1ccccc1Oc1ncnc(Oc2ccccc2Cl)c1F [Fluoxastrobin] | -1.84 ± 0.41% | -1.61 ± 0.52% | -0.5866 ± 0.0016% | 0.517 ± 2.5% | -0.886 ± 0.77% | -0.0116 ± 2.9% | 13.1 ± 0.82% | 33.8 ± 4% | – | – | – | – | – | – | – | –
